The nature of data set [1]: Selectivity index, ratio of CC50 for human Hep-2 cells to EC50 for antiviral activity against Coxsackievirus B3 infected in human Hep-2 cells. The class given is toxicity, cell-based. The note with it: read-out: Ratio CC50/EC50.
Data set [2] in a line: Cytotoxicity against Coxsackievirus B3 infected human Hep-2 cells assessed as reduction in cell viability measured after 48 hrs by MTT assay. The following applies: Coxsackievirus B3 infected Hep-2 cells. Format: toxicity, cell-based.
For data set [3], the system named is Coxsackievirus B3. The data set can be described thus: Antiviral activity against Coxsackievirus B3 infected in human Hep-2 cells assessed as inhibition of virus-induced cytopathic effect measured after 48 hrs by MTT assay. The class given is functional, organism-based. The note with it: Enterovirus B, HEp-2, 48 h. For orientation: Damage to the host cells serves as the signal in cytopathic effect assays.

The subject of data set [4] is Staphylococcus aureus. The data set can be described thus: Antimicrobial activity against Staphylococcus aureus assessed as zone of inhibition at 80 ug measured after 1 to 2 days by paper disk diffusion method. The class given is functional. The note with it: time 1-2 day, read-out: IZ. (In general: A growth-free zone around the sample is the usual read-out of agar diffusion tests.)

The subject of data set [5] is Coxsackievirus B3. The data set can be described thus: Antiviral activity against Coxsackievirus B3 infected in human Hep-2 cells assessed as inhibition of virus-induced cytopathic effect measured after 48 hrs by MTT assay relative to control. The class given is functional.
The subject of data set [6] is Serratia entomophila. The data set can be described thus: Antimicrobial activity against Serratia entomophila DSM 12358 assessed as zone of inhibition at 80 ug measured after 1 to 2 days by paper disk diffusion method. The note with it: dose 80.0 µg, time 1-2 day. Format: functional, organism-based.
For data set [7], the system named is Coxsackievirus B3. The data set can be described thus: Antiviral activity against Coxsackievirus B3 infected in human Hep-2 cells assessed as protection against virus-induced pathological changes measured after 48 hrs by microscopic analysis. The class given is functional, organism-based.
For data set [8], the system named is Saccharomyces cerevisiae. Briefly: Antimicrobial activity against Saccharomyces cerevisiae assessed as zone of inhibition at 80 ug measured after 1 to 2 days by paper disk diffusion method. The class given is functional, organism-based. The following applies: dose 80.0 µg, time 1-2 day.
The test system of data set [9] is Escherichia coli. Briefly: Antimicrobial activity against Escherichia coli DH10B assessed as zone of inhibition at 80 ug measured after 1 to 2 days by paper disk diffusion method. Format: functional, organism-based. The following applies: dose 80.0 µg, time 1-2 day.
The subject of data set [10] is Coxsackievirus B3. The data set can be described thus: Antiviral activity against Coxsackievirus B3 infected in human Hep-2 cells assessed as protection against virus-induced apoptosis measured after 48 hrs by microscopic analysis. Format: functional, organism-based.
Data set [11] concerns Pseudomonas sp. Briefly: Antimicrobial activity against Pseudomonas sp. assessed as zone of inhibition at 80 ug measured after 1 to 2 days by paper disk diffusion method. The following applies: dose 80.0 µg, time 1-2 day. The class given is functional, organism-based.
The test system of data set [12] is Micrococcus luteus. The data set can be described thus: Antimicrobial activity against Micrococcus luteus assessed as zone of inhibition at 80 ug measured after 1 to 2 days by paper disk diffusion method. The class given is functional, organism-based. The note with it: dose 80.0 µg, time 1-2 day.
The test system of data set [13] is Staphylococcus aureus. The data set can be described thus: Potentiation of imipenem-induced antimicrobial activity against Staphylococcus aureus at 10 ug measured after 18 to 24 hrs in presence of 0.5 ug/ml imipenem by paper disk diffusion method. The class given is functional, organism-based. The note with it: dose 10.0 µg, time 18-24 hrs.
Data set [14] deals with Staphylococcus aureus. Briefly: Antimicrobial activity against Staphylococcus aureus assessed as diameter of zone of inhibition at 0.5 ug/ml measured after 18 to 24 hrs by paper disk diffusion method. Format: functional. The following applies: time 18-24 hrs, read-out: DIZ.
For data set [15], the system named is Staphylococcus aureus. Briefly: Antimicrobial activity against Staphylococcus aureus assessed as diameter of zone of inhibition at 0.25 ug/ml measured after 18 to 24 hrs by paper disk diffusion method. The following applies: dose 0.25 µg/ml, time 18-24 hrs. The class given is functional, organism-based.
In data set [16] the test system is Coxsackievirus B3. Briefly: Antiviral activity against Coxsackievirus B3 infected in human Hep-2 cells assessed as log reduction in viral progeny yield measured after 48 hrs relative to control. Format: functional.

Active and inactive are the calls of the source. No cut-off for these calls is given here.

We go through five compounds from ChEMBL document CHEMBL5576100, “Genome-Driven Discovery of Antiviral Atralabdans A-C from the Soil-Dwelling Streptomyces atratus” (J Nat Prod, 2024).

By CC50 is commonly meant the concentration at which the toxic effect on the cells reaches its halfway point. As usually defined, the EC50 is the concentration needed to bring the measured effect to its halfway point.

For the compound `NC(=O)c1ncn([C@@H]2O[C@H](CO)[C@@H](O)[C@H]2O)n1` [RIBAVIRIN], in data set [1], the selectivity ratio was 3.4. In addition, the CC50 at 48 h in [2] was 386 µM. Further, the EC50 in data set [3] stood at 114 µM.

`C=C[C@@](C)(O)[C@@H]1C[C@H]2C(=C)[C@@H]3C[C@H]4C(C)(C)CCC[C@]24[C@H]1O3`: the zone of inhibition at 80 µg/disc in data set [4] was around 1 mm. The Imax in [5] is given as 90.1%. Also, the “inhibition zone (IZ)” value in [6], in data set [8], in [9], in data set [11] and in data set [12] was “inactive” throughout. Further, the outcome in [7] and in data set [10] was Active. In addition, the selectivity ratio in data set [1] was found to be 2. Moreover, the result in [13] was inactive. Further, the CC50 at 48 h in data set [2] is 160 µM. Further, in data set [3], the EC50 came to 76.8 µM.

`C=C[C@](C)(O)[C@H]1C[C@H]2C(=C)[C@@H]3C[C@H]4C(C)(C)CCC[C@]24[C@H]1O3`: the zone of inhibition at 80 µg/disc in data set [4] was around 1 mm. Moreover, in [5], the Imax turned out to be 85.3%. For the same compound, the “inhibition zone (IZ)” value in data set [6], in data set [8], in data set [9], in [11] and in [12] was “inactive” in each case. Besides, the outcome in [7] and in [10] was Active. Also, the selectivity ratio in [1] was 3.8. The result in data set [13] was inactive. Further, the CC50 at 48 h in [2] was 161 µM. The EC50 in data set [3] was determined as 42.7 µM.

For the compound `C[C@@H](O)[C@H]1C(=O)N2C(C(=O)O)=C(SCCNC=N)C[C@H]12` [IMIPENEM ANHYDROUS], the zone of inhibition at 0.5 µg/mL in data set [14] was around 2 mm. For the same compound, the “diameter of the inhibition zone (DIZ)” value in data set [15] was “inactive”.

Consider `C=C[C@@](C)(O)[C@H]1C[C@H]2C(=C)[C@@H]3C[C@H]4C(C)(C)CCC[C@]24[C@H]1O3`, for which the zone of inhibition at 80 µg/disc in data set [4] is around 1 mm. For the same compound, the Imax in data set [5] turned out to be 91.2%. Also, the “inhibition zone (IZ)” value in data set [6], in [8], in [9], in data set [11] and in [12] was “inactive” throughout. Moreover, the outcome in data set [7] and in data set [10] was Active. The “log(activity)” value in [16] is recorded as around 4.5. In [1], the selectivity ratio stood at 6.2. Besides, the outcome in data set [13] was inactive. In data set [2], the 50% cytotoxic concentration (CC50) at 48 h stood at 168 µM. Moreover, in [3], the EC50 is 27.2 µM.
